# Earlier results in US6503396B2 (priority 2000, dated 2003).
# Experiments:
# lung cancer = lung cancer patients who exhibited no response to conventional anti-cancer drugs
# ovarian cancer = ovarian cancer patients who exhibited no response to conventional anti-cancer drugs
# breast cancer = breast cancer patients who exhibited no response to conventional anti-cancer drugs
smiles,measurement,setting,value
CC(=O)O[C@H]1C(=O)[C@@]2(C)[C@H]([C@H](OC(=O)c3ccccc3)[C@]3(O)C[C@H](OC(=O)[C@H](O)[C@@H](NC(=O)c4ccccc4)c4ccccc4)C(C)=C1C3(C)C)[C@]1(OC(C)=O)CO[C@@H]1C[C@@H]2O [taxol],response rate to taxol,lung cancer,20%
same,response rate to taxol,ovarian cancer,30%
same,response rate to taxol,breast cancer,50%
